Reference: the NIST ThermoML archive (doi:10.1016/j.jct.2016.08.004)

Assay: mn = molality of the nth substance listed, in mol/kg
Conditions: 101 kPa, Liquid; for viscosity: Capillary tube (Ostwald / Ubbelohde) method; for mass density: Vibrating tube method

Cc1ncc(CO)c(CO)c1O.Cl [5-hydroxy-6-methyl-3,4-pyridinedimethanol hydrochloride] + O
Conditions | mass density, 288.15 K [kg/m3] | mass density, 298.15 K [kg/m3] | mass density, 308.15 K [kg/m3] | mass density, 318.15 K [kg/m3] | viscosity, 288.15 K [mPa·s] | viscosity, 298.15 K [mPa·s] | viscosity, 308.15 K [mPa·s] | viscosity, 318.15 K [mPa·s]
m1 = 0.0202 | 1000.32 | 998.28 | 995.25 | 991.43 | 1.145 | 0.8984 | 0.7266 | 0.6009
m1 = 0.0365 | 1001.26 | 999.22 | 996.18 | 992.35 | 1.151 | 0.9043 | 0.7312 | 0.6048
m1 = 0.0529 | 1002.19 | 1000.15 | 997.09 | 993.26 | 1.157 | 0.9103 | 0.7358 | 0.6087
m1 = 0.0695 | 1003.11 | 1001.07 | 997.99 | 994.16 | 1.163 | 0.9163 | 0.7404 | 0.6127
m1 = 0.0863 | 1003.98 | 1001.99 | 998.89 | 995.06 | 1.169 | 0.9224 | 0.7451 | 0.6168
m1 = 0.1032 | 1004.86 | 1002.9 | 999.78 | 995.96 | 1.175 | 0.9286 | 0.7498 | 0.6209
